Reference: US20240300999A1, “PEPTIDES FOR REGULATING GLUCOSE” (priority 2021, published 2024)

Columns and labels:
L6 myotubes [1] = assay: Glucose uptake (2-deoxy-D-[3H]glucose) screening assay in cultured L6 myotubes; type: cell-based, rat; conditions: for Glucose Uptake (fold activity to control), Insulin (−) / Glucose Uptake (fold activity to control), Insulin (+): synthetic peptides 1 ng/mL (each), mean ± SEM; for Concentration at which inhibition of glucose uptake was exhibited / Concentration at which stimulation of glucose uptake was exhibited: L6 myotubes; for Bioactivity: Table 4, identified peptides
Description: Screening assays were performed as follows. L6 rat myoblasts (courtesy of Dr. Amira Klip, Hospital for Sick Children, Toronto, Canada) were grown and maintained in monolayer culture in alpha-MEM containing 2% (v/v) fetal bovine serum in an atmosphere of 5% CO2 at 37° C. L6 myoblasts were plated in 12-well or 24-well plates at 20,000 cells/mL, replacing the media every two days until complete differentiation into myotubes (7 days post-plating).
Once completely differentiated, myotubes were serum deprived (alpha-MEM with 0% FBS) for 3 h and treated or not with SPF (1 ng/ml or 1 μg/mL) for 2 h without (insulin-independent) or with 100 nM insulin (insulin-dependent) during the last 45 min. Cells were rinsed once with glucose-free HEPES-buffered saline solution pH 7.4 (140 mM NaCl, 20 mM HEPES/Na, 5 mM KCl, 2.5 mM MgSO4 and 1 mM CaCl2)), and were subsequently incubated for 8 min with 10 µM 2-deoxy-D-glucose containing 0.3 μCi/mL 2-deoxy-D-[3H]glucose in the same buffer. After incubation in transport medium, cells were rinsed three times with ice-cold saline solution (0.9% NaCl) and stored at −20° C. Cells were disrupted by adding 1 mL of 50 mM NaOH to plates with agitation for 15 min. Cell-incorporated radioactivity was measured using a Perkin Elmer Tricarb liquid scintillation counter. Protein concentrations were determined by the micro bicinchoninic acid method (BCA) using a bovine serum albumin (BSA) standard curve (ThermoScientific, Waltham, Mass, USA), and the results expressed in pM/min/mg protein, calculated using the following equation: […]
where DPM (sample) is the number of disintegrations per minute (DPM) measured for the tested sample, C is the concentration of protein (mg), DPM (2DG) is the number of DPM measure for the solution of radioactive 2-deoxy-D-[3H] glucose for 1 pmol and equal to 72.2025 dpm/pmol, and t is the incubation time with 2-deoxy-D-[3H] glucose, and reported in terms of relative activity to the control sample in the absence of insulin. Statistical analysis was performed in Microsoft Excel using a two-tailed Student's t-test assuming equal variance.

L6 myotubes [2] = assay: as above; type: cell-based, rat; conditions: for Glucose Uptake (fold activity to control), Insulin (−) / Glucose Uptake (fold activity to control), Insulin (+): synthetic peptides 1 pg/mL (each), mean ± SEM
[3] = 1 ng/mL, insulin state not distinguished (presence or absence)
[4] = 1 pg/mL, insulin state not distinguished

With Ile-Ala-Ile the “Effect on glucose uptake (in words)” value (L6 myotubes [1]; [3]) was “No significant effect”, the “Glucose Uptake (fold activity to control), Insulin (−)” value (L6 myotubes [1]; absence of insulin) was 1.04 ± 0.04 fold activity to control and the “Glucose Uptake (fold activity to control), Insulin (+)” value (L6 myotubes [1]; presence of insulin) was 1.80 ± 0.09 fold activity to control.
In the case of “Ile-Ala-Tyr (IAY) [chemically synthesized tripeptide, Ile-X-Tyr motif]”, the “Effect on glucose uptake (in words)” value (L6 myotubes [1]; 1 ng/mL (each peptide), absence of insulin) is reported as “stimulated glucose uptake”, the “Effect on glucose uptake (in words)” value (L6 myotubes [1]; [3]) is reported as “stimulating effect” and the “Effect on glucose uptake (in words)” value (L6 myotubes [1]; 1 ng/mL, presence of insulin) is reported as “stimulated glucose uptake”. The “Concentration at which inhibition of glucose uptake was exhibited” value (L6 myotubes [1]) was 2.7 pM, the “Concentration at which stimulation of glucose uptake was exhibited” value (L6 myotubes [1]) was 2.7 nM and the Bioactivity (L6 myotubes [1]) was “Modulates glucose uptake”. The “Glucose Uptake (fold activity to control), Insulin (−)” value (L6 myotubes [1]; absence of insulin) was 1.13 ± 0.05 fold activity to control, the “Glucose Uptake (fold activity to control), Insulin (+)” value (L6 myotubes [1]; presence of insulin) was 1.97 ± 0.08 fold activity to control and the “Effect on glucose uptake (in words)” value (L6 myotubes [2]; 1 pg/mL (each peptide), absence of insulin) was “inhibited glucose uptake”. For the same substance, the “Effect on glucose uptake (in words)” value (L6 myotubes [2]; [4]) was “inhibiting effect”, the “Effect on glucose uptake (in words)” value (L6 myotubes [2]; 1 pg/mL, presence of insulin) was “inhibited glucose uptake” and the “Glucose Uptake (fold activity to control), Insulin (−)” value (L6 myotubes [2]; absence of insulin) was 0.86 ± 0.04 fold activity to control. For the same substance, the “Glucose Uptake (fold activity to control), Insulin (+)” value (L6 myotubes [2]; presence of insulin) was 1.55 ± 0.04 fold activity to control.
Ile-Gly-Ile was tested, and the “Effect on glucose uptake (in words)” value (L6 myotubes [1]; [3]) was “No significant effect”, the “Glucose Uptake (fold activity to control), Insulin (−)” value (L6 myotubes [1]; absence of insulin) was 1.04 ± 0.04 fold activity to control and the “Glucose Uptake (fold activity to control), Insulin (+)” value (L6 myotubes [1]; presence of insulin) was 1.75 ± 0.17 fold activity to control.
In the case of “Ile-Gly-Tyr (IGY) [chemically synthesized tripeptide, Ile-X-Tyr motif]”, the “Effect on glucose uptake (in words)” value (L6 myotubes [1]; [3]) is reported as “stimulating effect”, the “Effect on glucose uptake (in words)” value (L6 myotubes [1]; 1 ng/mL, presence of insulin) is reported as “stimulated glucose uptake” and the “Concentration at which inhibition of glucose uptake was exhibited” value (L6 myotubes [1]) is reported as 2.8 pM. The “Concentration at which stimulation of glucose uptake was exhibited” value (L6 myotubes [1]) was 2.8 nM, the Bioactivity (L6 myotubes [1]) was “Modulates glucose uptake” and the “Glucose Uptake (fold activity to control), Insulin (−)” value (L6 myotubes [1]; absence of insulin) was 1.05 ± 0.06 fold activity to control. For the same substance, the “Glucose Uptake (fold activity to control), Insulin (+)” value (L6 myotubes [1]; presence of insulin) was 2.02 ± 0.05 fold activity to control, the “Effect on glucose uptake (in words)” value (L6 myotubes [2]; [4]) was “inhibiting effect” and the “Effect on glucose uptake (in words)” value (L6 myotubes [2]; 1 pg/mL, presence of insulin) was “inhibited glucose uptake”. For the same substance, the “Glucose Uptake (fold activity to control), Insulin (−)” value (L6 myotubes [2]; absence of insulin) was 0.98 ± 0.06 fold activity to control and the “Glucose Uptake (fold activity to control), Insulin (+)” value (L6 myotubes [2]; presence of insulin) was 1.49 ± 0.10 fold activity to control.
Ile-Ile-Ile was tested, and the “Effect on glucose uptake (in words)” value (L6 myotubes [1]; [3]) was “No significant effect”, the “Glucose Uptake (fold activity to control), Insulin (−)” value (L6 myotubes [1]; absence of insulin) was 1.00 ± 0.04 fold activity to control and the “Glucose Uptake (fold activity to control), Insulin (+)” value (L6 myotubes [1]; presence of insulin) was 2.02 ± 0.27 fold activity to control.
With Ile-Ile-Tyr the “Effect on glucose uptake (in words)” value (L6 myotubes [1]; [3]) was “did not significantly affect”, the “Glucose Uptake (fold activity to control), Insulin (−)” value (L6 myotubes [1]; absence of insulin) was 1.06 ± 0.03 fold activity to control and the “Glucose Uptake (fold activity to control), Insulin (+)” value (L6 myotubes [1]; presence of insulin) was 1.88 ± 0.11 fold activity to control. For the same substance, the “Glucose Uptake (fold activity to control), Insulin (−)” value (L6 myotubes [2]; absence of insulin) was 0.97 ± 0.04 fold activity to control and the “Glucose Uptake (fold activity to control), Insulin (+)” value (L6 myotubes [2]; presence of insulin) was 1.61 ± 0.07 fold activity to control.
